# From PMC10761730, “Serglycin secreted by late-stage nucleus pulposus cells is a biomarker of intervertebral disc degeneration” (Nature Communications, 2024)
# Target: T1, Serglycin (SRGN) (Homo sapiens, UniProt P10124)
# T1 construct: endogenous protein in primary human nucleus pulposus cells; CETSA with Western blot read-out
# T1 sequence (P10124 28-158): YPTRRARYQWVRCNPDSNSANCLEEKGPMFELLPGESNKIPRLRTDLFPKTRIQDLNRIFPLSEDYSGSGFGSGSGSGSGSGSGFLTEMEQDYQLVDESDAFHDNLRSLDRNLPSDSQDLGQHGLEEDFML
# Assay: cellular thermal shift assay (CETSA), Western blot
# Format: cell-based
# Conditions: intact NPCs pretreated with DAP for 12 h, heated 3 min, freeze-thaw lysis; melt curve only in figure
compound,measurement,value
O=c1ccc2ccc(O)c(O)c2o1 [Daphnetin],"cellular thermal shift assay (CETSA), Western blot",CETSA) of DAP and SRGN proteins also suggested that DAP could bind to SRGN
